In US4022900A, “Compositions containing 1,2,3,4-tetrahydroisoquinolines used as hypotensive agents” (Marion Laboratories, Inc., priority 1972, dated 1977):
Where a name gives a salt, the structure may show the parent alone. Read-outs that look alike come from different tables or passages of the source.

Tests used:
[1] = Acute toxicity (LD50) in the mouse; details: in vivo; for LD50: Table I, unit, species and route not given; for LD50 at 24 h: ip, read-out: Approximate Acute Toxicity (24 hrs.) In the Mouse, LD50
Procedure: 5-(3,4,5-trimethoxybenzamido)-2-methyl-1,2,3,4-tetrahydroisoquinoline (M-20) in mice has an LD-50 of about 125 to 250 mg/kg intraperitoneally.
(§1) Additional compounds have been tested. The toxicity data for the additional compounds tested, and their identity, is given in the following Table II while the blood pressure lowering activity of the compounds is given in the following Table III. The heading "Example Number" in the tables refers to the working example herein which discloses the compounds and its preparation. The test procedure used for determining the blood pressure lowering activity of the compounds is the same as that previously set forth herein. However, the figures in Table III are expressed as percentage change in blood pressure, rather than in mm of mercury change in blood pressure, as presented in Table I herein.
Approximate Acute Toxicity (24 hrs.)
(a) Suspension in 1% tragacanth
(b) Solution in distilled water
(c) Solubilized with the aid of dilute acid

[2] = tested on: systolic blood pressure of deoxycorticosterone acetate hypertensive rats; assay: Hypotensive activity in DCA/saline hypertensive rats (systolic blood pressure, tail cuff); format: in vivo, rat (male, CD strain); details: for Lowering of Blood Pressure in Hypertensive rate in mm's of Hg., 1 hr. / Lowering of Blood Pressure in Hypertensive rate in mm's of Hg., 2 hrs. / Lowering of Blood Pressure in Hypertensive rate in mm's of Hg., 4 hrs. / Lowering of Blood Pressure in Hypertensive rate in mm's of Hg., 24 hrs. / compounds which appear most active from Table I: 50 mg/kg intraperitoneal; for Lowering of Blood Pressure in Hypertensive rate in mm's of Hg., 1 hr. / Lowering of Blood Pressure in Hypertensive rate in mm's of Hg., 2 hrs. / Lowering of Blood Pressure in Hypertensive rate in mm's of Hg., 4 hrs. / Lowering of Blood Pressure in Hypertensive rate in mm's of Hg., 24 hrs.: change vs predrug control, six rats; for compounds which appear most active from Table I: qualitative ranking; for Percent Change in Pressure from Control ± S.E., 1 Hour / Percent Change in Pressure from Control ± S.E., 2 Hours / Percent Change in Pressure from Control ± S.E., 4 Hours / Percent Change in Pressure from Control ± S.E., 24 Hours: 50 mg/kg i.p., systolic pressure, * <0.05 significance (Newman-Keuls)
Procedure: Hypertension was produced in weanling (30-day old) male rats of the CD strain obtained from the Charles River Breeding Laboratories (Wilmington, Mass.) by subcutaneously implanting about the dorsal surface of the neck a pellet of deoxycorticosterone acetate (DCA) containing 10 mg DCA in a mixture of Carbowax 4000 (Union Carbide) and Flexowax C light (Glyco Products). Their drinking water was replaced by a 1% sodium chloride solution, a procedure known to facilitate the development of an experimental hypertension, and they had free access to chow. Systolic blood pressure in the caudal arteries was measured indirectly by a pneumatic pulse transducer and a tail pressure cuff on a Physiograph Four recorder (Narco Bio-Systems, Inc., Houston, Texas) in unanesthetized but restrained rats prewarmed to 40° C., 10-15 minutes prior to the determination. The rats were kept at a temperature of 40° C. for all determinations of systolic pressure in an attempt to minimize variations in blood pressure due to marked changes in arterial tone caused by changes in temperature. Blood pressures were measured at intervals in the DCA-treated rats given saline and in non-treated control rats. After 20 days, the mean systolic pressure in the DCA-treated rats was above 150 mm Hg. Hypertension was regarded as being established in the rats at this stage and they were at intervals, usually beginning with the 30th day after DCA-implant in testing for hypotensive activity. Following a series of control blood pressure readings, a dose of 50 mg/kg of the compound under investigation was administered by intraperitoneal injection either in solution or as a suspension in 1% tragacanth solution to groups of six hypertensive rats. Blood pressures were redetermined at 1, 2, 4 and 24 hour periods following injection. At each interval, the systolic pressure was measured a minimum of five times in each rat and the average value was calculated. Mean values for the group were calculated from the individual average values and compared with their predrug control levels. The statistical significance of the changes produced by the compounds, in the doses employed, was tested by the "t" test as well as by an analysis of variance. The reductions in blood pressure obtained with the indicated representative tetrahydroisoquinoline compounds are shown in Table I. The code number for the compound and the example herein showing its preparation are both given in Table I.
as §1

[3] = solubilized with the aid of dilute acid

Row | SMILES | LD50 [1] [mg/kg] | Lowering of Blood Pressure in Hypertensive rate in mm's of Hg., 1 hr. [2] | Lowering of Blood Pressure in Hypertensive rate in mm's of Hg., 2 hrs. [2] | Lowering of Blood Pressure in Hypertensive rate in mm's of Hg., 4 hrs. [2] | Lowering of Blood Pressure in Hypertensive rate in mm's of Hg., 24 hrs. [2] | compounds which appear most active from Table I [2] | LD50 at 24 h ([1]; solution in distilled water) [mg/kg] | Percent Change in Pressure from Control ± S.E., 1 Hour [2] [%] | Percent Change in Pressure from Control ± S.E., 2 Hours [2] [%] | Percent Change in Pressure from Control ± S.E., 4 Hours [2] [%] | Percent Change in Pressure from Control ± S.E., 24 Hours [2] | LD50 at 24 h [1, 3] [mg/kg]
1 | CCCN1CCc2c(cccc2NC(=O)c2cc(OC)c(OC)c(OC)c2)C1 [M-49, 5-(3,4,5-Trimethoxybenzamido)-2-n-propyl-1,2,3,4-tetrahydroisoquinoline] | 125 to 250 | -31±6 mm's of Hg | -27±6 mm's of Hg | -21±6 mm's of Hg | -17±6 mm's of Hg | most active | – | – | – | – | – | –
2 | COc1ccc(C(=O)Nc2cccc3c2CCN(C)C3)cc1OC [M-55, 5-(3,4-Dimethyoxybenzamido)-2-methyl-1,2,3,4-tetrahydroisoquinoline] | 125 to 250 | -32±5 mm's of Hg | -31±5 mm's of Hg | -32±4 mm's of Hg | -20±4 mm's of Hg | most active | – | – | – | – | – | –
3 | CCCN1CCc2c(cccc2NC(=O)c2ccc(OC)c(OC)c2)C1 [M-47, 5-(3,4-Dimethoxybenzamido)-2-n-propyl-1,2,3,4-tetrahydroisoquinoline] | 250 to 500 | -35±7 mm's of Hg | -46±11 mm's of Hg | -41±8 mm's of Hg | -22±4 mm's of Hg | most active | – | – | – | – | – | –
4 | COc1cc(C(=O)Nc2cccc3c2CCNC3)cc(OC)c1OC [M-46, 5-(3,4,5-Trimethoxybenzamido)-1,2,3,4-tetrahydroisoquinoline HCl] | 250 to 500 | -26±10 mm's of Hg | -25±7 mm's of Hg | -11±4 mm's of Hg | -18±4 mm's of Hg | – | – | – | – | – | – | –
5 | COc1cc(C(=O)Nc2ccc3c(c2)CCN(C)C3)cc(OC)c1OC [M-72, 6-(3,4,5-Trimethoxybenzamido)-2-methyl-1,2,3,4-tetrahydroisoquinoline HCl] | – | – | – | – | – | – | 188 to 250 | -21.6 ± 1.7 | -19.4 ± 4.0 | -11.9 ± 3.4 | -3.8 ± 1.3% | –
6 | Cc1cccc(C)c1C(=O)Nc1cccc2c1CCN(C)C2 [M-58, 5-(2,6-Dimethylbenzamido)-2-methyl-1,2,3,4-tetrahydroisoquinoline] | – | – | – | – | – | – | – | -6.1 ± 1.7 | -2.4 ± 0.6 | -5.2 ± 1.8 | +2.0 ± 2.1% | 125 to 250
7 | CN1CCc2c(cccc2NC(=O)c2ccccc2I)C1 [M-70, 5-(2-Iodobenzamido)-2-methyl-1,2,3,4-tetrahydroisoquinoline] | – | – | – | – | – | – | – | -6.8 ± 2.1 | -9.9 ± 2.1 | -5.7 ± 1.9 | -0.7 ± 2.9% | < 31
8 | CCc1cccc(CC)c1C(=O)Nc1cccc2c1CCN(C)C2 [M-66, 5-(2,6-Diethylbenzamido)-2-methyl-1,2,3,4-tetrahydroisoquinoline] | – | – | – | – | – | – | – | -5.7 ± 3.0 | -7.5 ± 4.6 | -6.1 ± 2.8 | -2.1 ± 2.3% | 125 to 250
9 | CN1CCc2c(cccc2NC(=O)c2ccccc2[N+](=O)[O-])C1 [M-69, 5-(2-Nitrobenzamido)-2-methyl-1,2,3,4-tetrahydroisoquinoline] | – | – | – | – | – | – | – | – | -4.1 ± 3.0 | -3.3 ± 4.0 | -1.0 ± 3.0% | 125 to 250
